Measured values published in ChEMBL document CHEMBL3045619, “Antitermite activity of 7-alkoxycoumarins and related analogs against Coptotermes formosanus Shiraki” (2012).

System: Coptotermes formosanus
Experiment: Termiticidal activity against Coptotermes formosanus assessed as mortality at 5 uM up to 14 days by no choice test relative to control
Assay type: functional
Conditions: 336 h

Row | SMILES | mortality at 5 µM
1 | COc1ccc(COc2ccc3ccc(=O)oc3c2)cc1 | 41.4%
2 | CC#CCOc1ccc2ccc(=O)oc2c1 [7-(2-BUTYNYLOXY)COUMARIN] | 51.5%
3 | CCCCCC#CCOc1ccc2ccc(=O)oc2c1 [7-(2-OCTYNYLOXY)COUMARIN] | 28.3%
4 | CCC#CCOc1ccc2ccc(=O)oc2c1 [7-(2-PENTYNYLOXY)COUMARIN] | 32.3%
5 | COc1cc(COc2ccc3ccc(=O)oc3c2)cc(OC)c1 [7-(3,5-DIMETHOXYBENZYLOXY)COUMARIN] | 32.3%
6 | O=c1ccc2ccc(OCCCc3ccccc3)cc2o1 [7-(3-PHENYLPROPOXY)COUMARIN] | 16.2%
7 | O=c1ccc2ccc(Oc3ccc([N+](=O)[O-])cc3)cc2o1 [7-(4-NITROPHENOXY)COUMARIN] | 62.6%
8 | C=CCOc1ccc2ccc(=O)oc2c1 [7-ALLYLOXYCOUMARIN] | 38.4%
9 | O=c1ccc2ccc(OCc3ccccc3)cc2o1 [7-BENZYLOXYCOUMARIN] | 23.2%
10 | CCCCOc1ccc2ccc(=O)oc2c1 [7-BUTOXYCOUMARIN] | 19.2%
11 | O=C(/C=C/c1ccccc1)Oc1ccc2ccc(=O)oc2c1 [7-CINNAMOYLOXYCOUMARIN] | 12.1%
12 | O=c1ccc2ccc(OC3CCCCC3)cc2o1 [7-CYCLOHEXYLOXYCOUMARIN] | 65.7%
13 | CCCCCCCCCCCCOc1ccc2ccc(=O)oc2c1 [7-DODECYLOXYCOUMARIN] | 19.2%
14 | CCCCCCCCCCCCCCCCOc1ccc2ccc(=O)oc2c1 [7-HEXADECYLOXYCOUMARIN] | 3%
15 | CC(C)COc1ccc2ccc(=O)oc2c1 [7-ISOBUTOXYCOUMARIN] | 9.1%
16 | CC(C)Oc1ccc2ccc(=O)oc2c1 [7-ISOPROPOXYCOUMARIN] | 13.1%
17 | CCCCCCCCCCCCCCCCCCOc1ccc2ccc(=O)oc2c1 [7-OCTADECYLOXYCOUMARIN] | 8.1%
18 | CCCCCCCCOc1ccc2ccc(=O)oc2c1 [7-OCTYLOXYCOUMARIN] | 17.2%
19 | O=c1ccc2ccc(OCCc3ccccc3)cc2o1 [7-PHENETHOXYCOUMARIN] | 10.1%
20 | CCCOc1ccc2ccc(=O)oc2c1 [7-PROPOXYCOUMARIN] | 16.2%
21 | C/C=C/COc1ccc2ccc(=O)oc2c1 [(E)-7-(2-BUTENYLOXY)COUMARIN] | 33.3%
22 | CCOc1ccc2ccc(=O)oc2c1 [ETHOXYCOUMARIN] | 14.1%
23 | COc1ccc2ccc(=O)oc2c1 [HERNIARIN] | 13.1%
